Starred links: 1 amine or outer side, 2 acyl side, 3 side chain; linkers in the order of their positions; H or OH if unused. Positions of bridges follow the written chain, without caps; N, C: chain ends. Non-standard residues stand in square brackets, D forms with d. Residues, ends and D or L forms follow the SMILES beside them. Trp(7-aza) = N[C@@H](Cc1c[nH]c2ncccc12)C(=O)O; Trp(1-Me) = Cn1cc(C[C@H](N)C(=O)O)c2ccccc21; mXylylene = c1cc(C[*:1])cc(C[*:2])c1; pXylylene = c1cc(C[*:2])ccc1C[*:1]; Phg = N[C@H](C(=O)O)c1ccccc1; NMeS = CN[C@@H](CO)C(=O)O; hCys = N[C@@H](CCS)C(=O)O; Nva = CCC[C@H](N)C(=O)O

The first test deals with C5 (Homo sapiens, UniProt P01031). Put plainly: Human hemolysis assay (RBC lysis assay using complete human sera). In kind it is cell-based. Also noted: with complete human sera (Complement Technology, Tyler Tex.) and polypeptides; tissue Complement Technology, Tyler Tex; host or cells: complete human serum. Particulars: 7-azatryptophan variant polypeptides of R3008; inhibition of red blood cell lysis.
C5, sequence (P01031 19-1676): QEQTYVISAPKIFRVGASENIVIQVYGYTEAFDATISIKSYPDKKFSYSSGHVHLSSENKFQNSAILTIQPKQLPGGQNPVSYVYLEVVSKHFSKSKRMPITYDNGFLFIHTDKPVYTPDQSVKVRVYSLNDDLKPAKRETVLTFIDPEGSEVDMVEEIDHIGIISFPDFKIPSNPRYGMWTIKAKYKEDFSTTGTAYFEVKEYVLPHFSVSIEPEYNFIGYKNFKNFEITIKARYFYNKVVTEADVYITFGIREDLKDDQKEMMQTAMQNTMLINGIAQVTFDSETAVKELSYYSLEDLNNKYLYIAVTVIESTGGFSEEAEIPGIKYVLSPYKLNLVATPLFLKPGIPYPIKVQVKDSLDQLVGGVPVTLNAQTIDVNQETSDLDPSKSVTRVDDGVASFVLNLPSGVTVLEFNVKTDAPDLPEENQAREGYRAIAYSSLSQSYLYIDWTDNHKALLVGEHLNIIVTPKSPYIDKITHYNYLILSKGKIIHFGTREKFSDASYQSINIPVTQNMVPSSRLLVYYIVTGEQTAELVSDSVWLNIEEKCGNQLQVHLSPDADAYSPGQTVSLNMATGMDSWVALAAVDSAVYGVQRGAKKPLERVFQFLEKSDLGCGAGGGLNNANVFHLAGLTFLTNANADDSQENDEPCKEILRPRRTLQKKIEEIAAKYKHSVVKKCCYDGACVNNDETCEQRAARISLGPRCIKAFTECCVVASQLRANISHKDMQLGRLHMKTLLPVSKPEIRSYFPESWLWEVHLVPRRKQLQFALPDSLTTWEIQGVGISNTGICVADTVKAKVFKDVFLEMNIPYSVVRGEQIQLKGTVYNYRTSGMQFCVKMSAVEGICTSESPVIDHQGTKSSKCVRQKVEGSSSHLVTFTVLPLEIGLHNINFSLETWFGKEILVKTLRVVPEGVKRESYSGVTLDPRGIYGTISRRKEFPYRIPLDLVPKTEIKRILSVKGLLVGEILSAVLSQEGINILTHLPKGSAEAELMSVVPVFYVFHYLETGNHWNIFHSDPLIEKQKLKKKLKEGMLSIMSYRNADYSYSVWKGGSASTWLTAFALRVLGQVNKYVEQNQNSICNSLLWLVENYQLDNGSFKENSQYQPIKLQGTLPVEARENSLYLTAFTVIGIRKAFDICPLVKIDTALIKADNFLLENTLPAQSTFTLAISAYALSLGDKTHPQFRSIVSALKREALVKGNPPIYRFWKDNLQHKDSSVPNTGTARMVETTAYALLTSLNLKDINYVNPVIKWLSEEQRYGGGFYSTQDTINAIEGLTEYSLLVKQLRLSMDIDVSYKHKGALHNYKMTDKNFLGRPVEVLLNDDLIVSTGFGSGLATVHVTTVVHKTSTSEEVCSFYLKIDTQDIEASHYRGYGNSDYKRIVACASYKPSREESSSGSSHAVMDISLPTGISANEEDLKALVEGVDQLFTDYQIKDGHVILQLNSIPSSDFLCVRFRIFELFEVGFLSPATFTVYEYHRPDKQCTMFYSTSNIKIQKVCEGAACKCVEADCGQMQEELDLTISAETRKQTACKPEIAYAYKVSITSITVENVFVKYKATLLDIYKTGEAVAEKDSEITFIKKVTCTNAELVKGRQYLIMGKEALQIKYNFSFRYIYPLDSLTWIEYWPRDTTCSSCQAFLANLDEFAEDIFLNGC
`CCC[C@H](NC(=O)[C@@H]1CSCc2cccc(c2)CSC[C@H](NC(=O)[C@H](CCC)NC(C)=O)C(=O)N[C@@H](c2ccccc2)C(=O)N[C@@H]([C@@H](C)O)C(=O)N[C@@H](Cc2cn(C)c3ccccc23)C(=O)N[C@@H](CCC(=O)O)C(=O)N[C@@H](Cc2ccc(O)cc2)C(=O)N(C)[C@@H](CO)C(=O)N[C@@H](C)C(=O)N1)C(N)=O` [Compound R3109, [mXylyl(2,10)]Ac-Nvl-C-Phg-T-(1-Me-W)-E-Y-(N-Me)S-A-C-Nvl-NH2] (Ac-[Nva]C[Phg]T[Trp(1-Me)]EY[NMeS]AC[Nva]-NH2; linker 2-10 via mXylylene) displayed an IC50 greater than 100 µM.

Staying with this test, now noted: inhibition of lysis of antibody-sensitized sheep erythrocytes, complete human sera.
Regarding `CCC[C@H](NC(=O)[C@@H]1CSCc2cccc(c2)CSC[C@H](NC(=O)[C@H](CCC)NC(C)=O)C(=O)N[C@@H](c2ccccc2)C(=O)N[C@@H]([C@@H](C)O)C(=O)N[C@@H](Cc2c[nH]c3ncccc23)C(=O)N[C@@H](CCC(N)=O)C(=O)N[C@@H](Cc2ccc(O)cc2)C(=O)N(C)[C@@H](CO)C(=O)N[C@@H](C)C(=O)N1)C(N)=O` [Compound R3098, [mXylyl(2,10)]Ac-Nvl-C-Phg-T-azaTrp-Q-Y-(N-Me)S-A-C-Nvl-NH2] (Ac-[Nva]C[Phg]T[Trp(7-aza)]QY[NMeS]AC[Nva]-NH2; linker 2-10 via mXylylene), the IC50 was greater than 100 µM.

In the case of `CCC[C@H](NC(=O)[C@@H]1CSCc2cccc(c2)CSC[C@H](NC(=O)[C@H](CCC)NC(C)=O)C(=O)N[C@@H](c2ccccc2)C(=O)N[C@@H]([C@@H](C)O)C(=O)N[C@@H](Cc2c[nH]c3ncccc23)C(=O)N[C@@H](CC(N)=O)C(=O)N[C@@H](Cc2ccc(O)cc2)C(=O)N(C)[C@@H](CO)C(=O)N[C@@H](C)C(=O)N1)C(N)=O` [Compound R3099, [mXylyl(2,10)]Ac-Nvl-C-Phg-T-azaTrp-N-Y-(N-Me)S-A-C-Nvl-NH2] (Ac-[Nva]C[Phg]T[Trp(7-aza)]NY[NMeS]AC[Nva]-NH2; linker 2-10 via mXylylene), the IC50 was greater than 100 µM.

As for `CCC[C@H](NC(=O)[C@@H]1CSCc2cccc(c2)CSC[C@H](NC(=O)[C@H](CCC)NC(C)=O)C(=O)N[C@@H](c2ccccc2)C(=O)N[C@@H]([C@@H](C)O)C(=O)N[C@@H](Cc2c[nH]c3ncccc23)C(=O)N[C@@H](CCC(=O)O)C(=O)N[C@@H](Cc2ccccc2)C(=O)N(C)[C@@H](CO)C(=O)N[C@@H](C)C(=O)N1)C(N)=O` [Compound R3100, [mXylyl(2,10)]Ac-Nvl-C-Phg-T-azaTrp-E-F-(N-Me)S-A-C-Nvl-NH2] (Ac-[Nva]C[Phg]T[Trp(7-aza)]EF[NMeS]AC[Nva]-NH2; linker 2-10 via mXylylene), the IC50 was 0.626 µM.

Take `CCC[C@H](NC(=O)[C@@H]1CSCc2cccc(c2)CSC[C@H](NC(=O)[C@H](CCC)NC(C)=O)C(=O)N[C@@H](c2ccccc2)C(=O)N[C@@H]([C@@H](C)O)C(=O)N[C@@H](Cc2c[nH]c3ncccc23)C(=O)N[C@@H](CCC(=O)O)C(=O)N[C@@H](Cc2ccc(O)cc2)C(=O)N(C)[C@@H](CO)C(=O)N[C@@H](Cc2c[nH]cn2)C(=O)NCC(=O)N1)C(N)=O` [Compound R3101, [mXylyl(2,10)]Ac-Nvl-C-Phg-T-azaTrp-E-Y-(N-Me)S-A-H-G-Nvl-NH2] (Ac-[Nva]C[Phg]T[Trp(7-aza)]EY[NMeS]HGC[Nva]-NH2; linker 2-11 via mXylylene): the IC50 was greater than 100 µM.

As to `CCC[C@H](NC(=O)[C@@H]1CSCc2cccc(c2)CSC[C@H](NC(=O)[C@H](CCC)NC(C)=O)C(=O)N[C@@H](c2ccccc2)C(=O)N[C@@H]([C@@H](C)O)C(=O)N[C@@H](Cc2c[nH]c3ncccc23)C(=O)N[C@@H](CCC(=O)O)C(=O)N[C@@H](Cc2ccc(O)cc2)C(=O)N2CCC[C@H]2C(=O)N[C@@H](Cc2c[nH]cn2)C(=O)N1)C(N)=O` [Compound R3102, [mXylyl(2,10)]Ac-Nvl-C-Phg-T-azaTrp-E-Y-P-H-C-Nvl-NH2] (Ac-[Nva]C[Phg]T[Trp(7-aza)]EYPHC[Nva]-NH2; linker 2-10 via mXylylene), the IC50 worked out at 0.978 µM.

Consider `CCC[C@H](NC(=O)[C@@H]1CSCc2cccc(c2)CSCC[C@H](NC(=O)[C@H](CCC)NC(C)=O)C(=O)N[C@@H](c2ccccc2)C(=O)N[C@@H]([C@@H](C)O)C(=O)N[C@@H](Cc2c[nH]c3ncccc23)C(=O)N[C@@H](CCC(=O)O)C(=O)N[C@@H](Cc2ccc(O)cc2)C(=O)N(C)[C@@H](CO)C(=O)N[C@@H](Cc2c[nH]cn2)C(=O)N1)C(N)=O` [Compound R3103, [mXylyl(2,10)]Ac-Nvl-homoC-Phg-T-azaTrp-E-Y-(N-Me)S-H-C-Nvl-NH2] (Ac-[Nva][hCys][Phg]T[Trp(7-aza)]EY[NMeS]HC[Nva]-NH2; linker 2-10 via mXylylene), for which the IC50 was greater than 25 µM.

Regarding `CCC[C@H](NC(=O)[C@@H]1CSCc2ccc(cc2)CSCC[C@H](NC(=O)[C@H](CCC)NC(C)=O)C(=O)N[C@@H](c2ccccc2)C(=O)N[C@@H]([C@@H](C)O)C(=O)N[C@@H](Cc2c[nH]c3ncccc23)C(=O)N[C@@H](CCC(=O)O)C(=O)N[C@@H](Cc2ccc(O)cc2)C(=O)N(C)[C@@H](CO)C(=O)N[C@@H](Cc2c[nH]cn2)C(=O)N1)C(N)=O` [Compound R3104, [pXylyl(2,10)]Ac-Nvl-homoC-Phg-T-azaTrp-E-Y-(N-Me)S-H-C-Nvl-NH2] (Ac-[Nva][hCys][Phg]T[Trp(7-aza)]EY[NMeS]HC[Nva]-NH2; linker 2-10 via pXylylene), the IC50 was greater than 2 µM.

For the molecule `CCC[C@H](NC(=O)[C@@H]1CCSCc2cccc(c2)CSC[C@H](NC(=O)[C@H](CCC)NC(C)=O)C(=O)N[C@@H](c2ccccc2)C(=O)N[C@@H]([C@@H](C)O)C(=O)N[C@@H](Cc2c[nH]c3ncccc23)C(=O)N[C@@H](CCC(=O)O)C(=O)N[C@@H](Cc2ccc(O)cc2)C(=O)N(C)[C@@H](CO)C(=O)N[C@@H](Cc2c[nH]cn2)C(=O)N1)C(N)=O` [Compound R3105, [mXylyl(2,10)]Ac-Nvl-C-Phg-T-azaTrp-E-Y-(N-Me)S-H-homoC-Nvl-NH2] (Ac-[Nva]C[Phg]T[Trp(7-aza)]EY[NMeS]H[hCys][Nva]-NH2; linker 2-10 via mXylylene), the IC50 is greater than 5 µM.

Turning to `CCC[C@H](NC(=O)[C@@H]1CCSCc2ccc(cc2)CSC[C@H](NC(=O)[C@H](CCC)NC(C)=O)C(=O)N[C@@H](c2ccccc2)C(=O)N[C@@H]([C@@H](C)O)C(=O)N[C@@H](Cc2c[nH]c3ncccc23)C(=O)N[C@@H](CCC(=O)O)C(=O)N[C@@H](Cc2ccc(O)cc2)C(=O)N(C)[C@@H](CO)C(=O)N[C@@H](Cc2c[nH]cn2)C(=O)N1)C(N)=O` [Compound R3106, [pXylyl(2,10)]Ac-Nvl-C-Phg-T-azaTrp-E-Y-(N-Me)S-H-homoC-Nvl-NH2] (Ac-[Nva]C[Phg]T[Trp(7-aza)]EY[NMeS]H[hCys][Nva]-NH2; linker 2-10 via pXylylene), the IC50 was greater than 5 µM.

Turning to `CCC[C@H](NC(=O)[C@@H]1CCSCc2cccc(c2)CSCC[C@H](NC(=O)[C@H](CCC)NC(C)=O)C(=O)N[C@@H](c2ccccc2)C(=O)N[C@@H]([C@@H](C)O)C(=O)N[C@@H](Cc2c[nH]c3ncccc23)C(=O)N[C@@H](CCC(=O)O)C(=O)N[C@@H](Cc2ccc(O)cc2)C(=O)N(C)[C@@H](CO)C(=O)N[C@@H](Cc2c[nH]cn2)C(=O)N1)C(N)=O` [Compound R3107, [mXylyl(2,10)]Ac-Nvl-homoC-Phg-T-azaTrp-E-Y-(N-Me)S-H-homoC-Nvl-NH2] (Ac-[Nva][hCys][Phg]T[Trp(7-aza)]EY[NMeS]H[hCys][Nva]-NH2; linker 2-10 via mXylylene), the IC50 was greater than 75 µM.

In the case of `CCC[C@H](NC(=O)[C@@H]1CSCc2cccc(c2)CSC[C@H](NC(=O)[C@H](CCC)NC(C)=O)C(=O)N[C@@H](c2ccccc2)C(=O)N[C@@H]([C@@H](C)O)C(=O)N[C@@H](Cc2cn(C)c3ccccc23)C(=O)N[C@@H](CCC(=O)O)C(=O)N[C@@H](Cc2ccc(O)cc2)C(=O)N(C)[C@@H](CO)C(=O)N[C@@H](C)C(=O)N1)C(N)=O` [Compound R3109, [mXylyl(2,10)]Ac-Nvl-C-Phg-T-(1-Me-W)-E-Y-(N-Me)S-A-C-Nvl-NH2] (Ac-[Nva]C[Phg]T[Trp(1-Me)]EY[NMeS]AC[Nva]-NH2; linker 2-10 via mXylylene), the IC50 is greater than 100 µM.

For orientation: IC50 means the midpoint of a concentration-inhibition curve.
